Activity calls are given as the source filed them.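 The calls were made as follows: active = compounds giving half or more protection of infected cells from virus-caused growth loss, again on retest; inactive = the rest.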

EC50, IC50 and outcome data for 72 compounds are collected here from PubChem BioAssay AID179 (DTP/NCI, 2004).

The assay deals with CEM cells HIV-1 protection, formazan growth assay. Put plainly: NCI AIDS Antiviral Assay. The conditions noted are these: for IC50: measured here: growth of uninfected CEM cells. The method, boiled down:
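Protection of CEM cells against HIV-1 was scored from cell growth (soluble formazan) across five concentrations, with parallel uninfected cells. Lack of protection may reflect toxicity.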

What is called EC50 is the concentration needed to bring the measured effect to its halfway point. As a reminder, the IC50 is the point on the concentration scale where inhibition reaches its midpoint. Consider `Cc1cc2cc(O)c3c(=O)c4c(O)cccc4c(=O)c3c2c(=O)c1=O`, for which the EC50 was > 21.4 µM and the IC50 was found to be 12 µM.
With `O=C(O)c1cc2c(cc1CC(Cc1ccccc1)C(=O)O)CCC2` (configuration not stated), the outcome was inactive.
Take `O=c1cc(-c2ccccc2)oc2cc(OCCSCCCCCCCCCCSCCOc3ccc4c(=O)cc(-c5ccccc5)oc4c3)ccc12`: the EC50 was > 1.95 µM and the IC50 is > 1.95 µM.
For `Cc1ccc2c(c1)C(C(=O)N[C@@H]1C(=O)N3[C@@H]1SC(C)(C)[C@@H]3C(=O)O)OCCC2` (some centres not stated), the EC50 was > 200 µM and the IC50 was > 200 µM.
On to `COC(=O)C(C)(C)C(OP(=O)(OC)OC)=C(C)C`, for which the EC50 was > 891 µM and the IC50 is > 891 µM.
Regarding `OC(c1ccccn1)c1c(Cl)cccc1Cl` (configuration not stated), the EC50 was > 200 µM and the IC50 was > 200 µM.
In the case of `CC(C1CCCC1=O)C1CCCC1=O` (configuration not stated), the outcome was inactive.
Regarding `COc1ccccc1N1C(=O)/C(=C\c2cccc(Oc3ccccc3)c2)S(=O)(=O)C1c1ccccc1` (configuration not stated), the EC50 was > 200 µM and the IC50 was determined as 36.3 µM.
For `COc1cc(Nc2nc3cc(C(F)(F)F)ccc3nc2-c2ccccc2)cc(OC)c1OC`, in that order: > 41.7 µM and > 41.7 µM.
For `Fc1cccc(F)c1C1SCc2nc3ccc(Cl)cc3n21` (configuration not stated), in that order: 4.07 µM and > 200 µM.
In the case of `CN(N)c1cnn(-c2ccccc2)c(=O)c1Cl`, the EC50 was > 200 µM and the IC50 was > 200 µM.
`O=[N+]([O-])c1cc(C2SCc3nc4ccccc4n32)ccc1Cl` (configuration not stated): the outcome was inactive.
As to `C=C(CCOC)CCC1CCCCC(=C)[C@H]1O` (some centres not stated), the EC50 is > 200 µM and the IC50 was > 200 µM.
As to `O=c1[nH]c(=O)n(C2CC(O)C(CO)O2)cc1OCC1CCCCC1` (configuration not stated), the EC50 was > 200 µM and the IC50 was > 200 µM.
As to `CSc1snc2sc3c(Cl)nnnc3c12`, the outcome was inactive.
As to `O=C1c2ccccc2C(=O)c2sc(Nc3cc(Cl)ccc3Cl)nc21`, the EC50 is > 200 µM and the IC50 amounted to 10.5 µM.
Turning to `N#CC(C#N)=Cn1ccc(=O)[nH]c1=S`, the EC50 was > 200 µM and the IC50 is > 200 µM.
On to `Oc1ccc(/C=C/c2cc(O)cc3c2[C@@H](c2cc(O)cc4c2[C@H](c2cc(O)cc5c2[C@@H](c2cc(O)cc(O)c2)[C@H](c2ccc(O)cc2)O5)[C@@H](c2ccc(O)cc2)O4)[C@H](c2ccc(O)cc2)O3)cc1`, for which the EC50 is 12.3 µM and the IC50 was 15.8 µM.
For `O=C(CCCN1CCC2(CC1)CC(=O)N(N1CCOCC1)C2=O)c1ccc(F)cc1`, in that order: > 200 µM and > 200 µM.
Turning to `NC1=NN(c2ccccc2)C(=O)C1C(=O)C(=O)Nc1ccc(Cl)cc1` (configuration not stated), the EC50 is > 347 µM and the IC50 came out at 251 µM.
Turning to `COC(=O)c1ccccc1NC(=O)C(=O)CC(=O)CC(c1ccccc1)c1c(O)c2ccccc2oc1=O` (configuration not stated), the EC50 is > 490 µM and the IC50 was found to be 245 µM.
As to `Cc1ccc([S+](c2ccccc2)c2cc(C)ccc2C)cc1` (configuration not stated), the EC50 is > 646 µM and the IC50 came to 1.17 µM.
In the same order, the values of `Cc1cc(C)nc(NS(=O)(=O)c2ccc(NC(=O)c3cccc4c(Nc5ccc(S(=O)(=O)Nc6cc(C)on6)cc5)c5ccccc5nc34)cc2)n1` are > 35.5 µM and > 35.5 µM.
Turning to `O=C(Nc1ccc(N=Nc2ccc(O)c(C(=O)O)c2)cc1)Nc1ccc(N=Nc2ccc(O)c(C(=O)O)c2)cc1`, the EC50 was > 200 µM and the IC50 was 141 µM.
Turning to `COC(=O)C1=C(C(=O)OC)C(Cc2ccccc2)(OO)OC1=O` (configuration not stated), the EC50 is > 200 µM and the IC50 is 0.955 µM.
In the case of `CC(=O)CCCCCCCCCCCC[C@@H]1CC[C@H](C)[C@H](O)N1`, the EC50 was > 21.9 µM and the IC50 is > 21.9 µM.
Turning to `O=C(Cn1c(=O)oc2ccc(C(=O)c3ccc(F)cc3)cc21)c1ccc([N+](=O)[O-])cc1`, the EC50 is > 200 µM and the IC50 worked out at 25.1 µM.
Take `N#CC1C2C=CC(CCC2)C1C#N` (configuration not stated): the EC50 was > 200 µM and the IC50 was > 200 µM.
For the compound `CCCCCCCCCCCCCCCCCCSCC(C)(COP(=O)(O)OP(=O)(O)OCC1OC(n2cc(C)c(=O)[nH]c2=O)CC1N=[N+]=[N-])OC(=O)CCCCCCCCCCCCCCC` (configuration not stated), the EC50 was 3.24 µM and the half-inhibitory concentration (IC50) was 60.3 µM.
For `O=C1Nc2ccc(Br)cc2/C1=c1/sc2nc3ccccc3n2c1=O`, the EC50 was > 50.1 µM and the IC50 is 42.7 µM.
As to `NC1=Nc2ccccc2N(O)N1`, the EC50 was > 158 µM and the IC50 is > 158 µM.
Consider `O=C1CCSC(=O)N1c1ccccc1`, for which the EC50 was > 200 µM and the IC50 was > 200 µM.
Regarding `Cc1ccc(S(=O)C[C@](NC(=O)OCc2ccccc2)(Sc2ccccc2)C(F)F)cc1` (some centres not stated), the EC50 was > 200 µM and the IC50 amounted to 10.7 µM.
Regarding `Cn1c(O)c(C=Nc2ccccc2[N+](=O)[O-])c(=O)n(C)c1=O`, the outcome was inactive.
For `Cc1[nH]n(C(=N)N)c(=O)c1CCO`, the EC50 is > 200 µM and the IC50 is > 200 µM.
Consider `O=[N+]([O-])c1ccc(C(Cl)S(=O)(=O)c2ccccc2)cc1` (configuration not stated), for which the EC50 is > 83.2 µM and the IC50 was determined as 4.79 µM.
For the compound `O=C(O)c1cc(S(=O)(=O)N=NC=C2c3ccccc3N(O)c3ccccc32)ccc1O`, the result was inactive.
With `N#CC(C#N)C(c1ccccc1)c1ccccc1`, the result was inactive.
Consider `C=C1CN(C(=O)c2cc3cc(OC)c(OC)c(OC)c3[nH]2)c2cc([N+](=O)[O-])ccc21`, for which the EC50 was 26.9 µM and the IC50 is > 200 µM.
`COc1c(Cc2cc(Cl)cc(S(=O)(=O)N(C)C)c2OC)cc(Cl)cc1S(=O)(=O)N(C)C`: the EC50 was > 14.1 µM and the IC50 is > 14.1 µM.
On to `CC(=O)C(/C=N\C(N)=S)=C(\C)O`, for which the EC50 was > 200 µM and the IC50 is > 200 µM.
Regarding `CC(C)N(C(=O)C1(C)CC1)C(C)C`, the EC50 is > 1350 µM and the IC50 was > 1350 µM.
With `CNC(=O)Oc1cccc(CN(C)C)c1`, the EC50 is > 200 µM and the IC50 is > 200 µM.
On to `CCCCCCCCCCCCCc1nn[nH]n1`, for which the EC50 is > 102 µM and the IC50 is > 100 µM.
For `O=C1C=CC(=O)c2c(O)c3c(c(O)c21)C[C@H](O)[C@H](O)[C@@H]3O`, in that order: > 269 µM and 0.389 µM.
With `C=CCC1(C(=O)OC(C)(C)C)C(OC)=C(C(=O)OC(C)(C)C)C2C1C(C(=O)OC(C)(C)C)=C(OC)C2(CC=C)C(=O)OC(C)(C)C` (configuration not stated), the outcome was inactive.
As to `COc1ccc2c(=O)c([Se]c3coc4cc(OC)ccc4c3=O)coc2c1`, the EC50 is > 60.3 µM and the IC50 is > 60.3 µM.
Regarding `CSc1c(C#N)c(O)n(-c2ccc(Cl)cc2)c(=O)c1C#N`, the EC50 was > 200 µM and the concentration for half-maximal inhibition (IC50) was 33.1 µM.
For `C1CN2C(=N1)N1CCN=C1N1CCN=C21`, in that order: > 174 µM and > 174 µM.
Regarding `Cn1c2ccccc2c2ncc3[nH]c4ccccc4c3c21`, the result was inactive.
For `CC(C)(C)OC(=O)NCC(CNC(=O)OC(C)(C)C)c1nc(C(N)=O)cs1`, the EC50 is > 200 µM and the half-inhibitory concentration (IC50) was > 200 µM.
`O=c1[nH]c2nccn2c2c1SCCN2`: the EC50 is > 200 µM and the IC50 was > 200 µM.
Consider `COc1c(C)c2c(c(C)c1Cl)Oc1c(C=O)c(O)c(Cl)c(C)c1C(=O)O2`, for which the EC50 is > 18.2 µM and the IC50 was > 18.2 µM.
Take `FC(F)(Sc1ccccc1)c1nc2ccccc2o1`: the EC50 was > 77.6 µM and the IC50 turned out to be 66.1 µM.
As for `COc1cc(C(=O)Nc2cccc3ccccc23)c(Br)c(OC)c1OC`, the EC50 is > 45.7 µM and the IC50 is > 45.7 µM.
For `COC(=O)Cc1c([C@H]2[C@H](CC(=O)OC)c3ccccc3N2S(=O)(=O)c2ccc(C)cc2)[nH]c2ccccc12`, the EC50 is > 102 µM and the IC50 was found to be 11.5 µM.
In the same order, the values of `CC(=O)c1ccccc1NCC(=O)Nn1cnc2ccc(S(=O)(=O)Nc3ccccc3C(C)=O)cc2c1=O` are > 200 µM and > 200 µM.
Regarding `O=c1oc2ccccc2c(O)c1C(c1ccc([N+](=O)[O-])cc1)c1c(O)c2ccccc2oc1=O`, the result was inactive.
`COc1ccc(OC)c(-c2csc(=O)s2)c1`: the EC50 was > 269 µM and the concentration for half-maximal inhibition (IC50) is > 269 µM.
`Nc1c(Br)cc(-c2cc(Br)c(N)c(Br)c2)cc1Br`: the EC50 was > 200 µM and the IC50 is 138 µM.
In the same order, the values of `O=c1cc(C(F)(F)F)c2cc3c(cc2o1)NCCC3` are > 9.77 µM and > 9.77 µM.
On to `NNC(=O)N/N=C1\CNC(=O)C(=O)C1c1nc2ccccc2s1` (configuration not stated), for which the result was inactive.
For the compound `C/C(=N\N=C(N)N)C(CN1CCOCC1)C(c1ccccc1)c1c(O)c2ccccc2oc1=O` (configuration not stated), the EC50 is > 52.5 µM and the IC50 is > 52.5 µM.
As for `CC(C)(C)OC(=O)N1N=NC2C1C1CC(OCc3ccccc3)(OCc3ccccc3)C2O1` (configuration not stated), the EC50 is > 15.8 µM and the IC50 is > 15.8 µM.
As to `O=C(Nc1ccc(Cl)cc1Cl)C(=O)C(C(=O)c1ccc2ccccc2c1)C1OC(=O)c2ccccc21` (configuration not stated), the EC50 was > 50.1 µM and the IC50 was found to be 25.7 µM.
For `O=C(CBr)OCCCS(=O)(=O)O`, in that order: > 200 µM and > 200 µM.
In the same order, the values of `O=c1c2c([nH]c3ccccc13)CSC2` are > 67.6 µM and > 67.6 µM.
Regarding `CC(=O)C(=Cc1cccc(C)c1)C(C)=O`, the EC50 was > 339 µM and the IC50 amounted to 17.8 µM.
In the same order, the values of `Clc1ccc2c(NCCCCCCNc3ccnc4cc(Cl)ccc34)ccnc2c1` are > 14.1 µM and 2.4 µM.
In the same order, the values of `Cc1ccc(C2=NNc3n[nH]c(=S)n3N2)cc1` are > 75.9 µM and > 75.9 µM.
For the compound `CCOC(=O)c1cnc(NC)n2nc(-c3ccccc3)nc12`, the outcome was inactive.
Take `CN/N=C/c1c2c(O)c3c(O)c(C)c4c(c3c1O)C(=O)C(C)(O/C=C/C(OC)C(C)C(OC(C)=O)C(C)C(O)C(C)C(O)C(C)/C=C/C=C(/C)C(=O)N2)O4` (configuration not stated): the EC50 was > 200 µM and the IC50 turned out to be 26.3 µM.
